Data taken from patent publication US20150025085A1, “Iron Chelators And Uses Thereof” (Varinel Inc., priority 2012, published 2015).
Like-named read-outs stand apart in the source and are kept apart here.

How the values were obtained:
[1] = system: clinical isolates of bacterial strains of A. baumannii; assay: MIC by CLSI microdilution in CAMHB media; format: cell-based; conditions: Acinetobacter baumannii, 24 h
Protocol: (§1) The minimal inhibitory concentration (MIC) of compound 4 was determined against standard strains of MDR bacteria and clinical isolates according to the guidelines of the Clinical and Laboratory Standards Institute (CLSI).
(§2) Individual MICs were determined following the microdilution method recommended by CLSI in cationic-adjusted Mueller-Hinton Broth (CAMHB), or M9 media. The MIC was defined as the lowest drug concentration that caused 100% inhibition of visible bacterial growth after 24 hours incubation. Tests were performed in triplicate. MIC of Compound 4 were determined for nosocomial ESKAPE pathogens (Enterococcus faecium, Staphylococcus aureus, Klebsiella pneumoniae, Acinetobacter baumannii, Pseudomonas aeruginosa, and Enterobacter species).
(§3) Tables l and 2 show the MIC of compound 4 determined in two different media for clinical isolates of bacterial strains of A. baumannii (AB) obtained from the Multidrug-resistant Organism Repository & Surveillance Network, USA.

[2] = system: clinical isolates of bacterial strains of A. baumannii; assay: MIC by CLSI microdilution in RPMI 1640 (low iron) media; format: cell-based, Acinetobacter baumannii; design: key to MIC of compound 4: NG = no growth; conditions: for MIC: Acinetobacter baumannii
Protocol: as §1
as §2, with “Individual MICs were determined following the microdilution method recommended by CLSI in cationic-adjusted Mueller-Hinton Broth (CAMHB), or M9 media.” left out
as §3

A. baumannii strain 5711 = assay: Growth curves (OD600) in CAMHB medium; format: cell-based, Acinetobacter baumannii; conditions: various concentrations, dose-responsive
Text: (§4) It should be noted that the inhibition occurred in a dose-responsive manner.

[3] = Stability in aqueous solution; format: physicochemical
Text: as §4

bacterial infections = conditions: described in PCT/US2012/023377 (WO 2012/106364); cited from earlier work
[4] = prior publications (WO 00/74664; WO 2004/041151); cited from earlier work
6-OHDA lesioned rats = conditions: cited from earlier work; for activity (neuroprotection) against 6-OHDA in an animal model of Parkinson's disease: prior publications, Ben Shachar et al. 2004
[5] = system: lactacystin-lesioned mice; conditions: 5 mg/kg once a day i.p., 7 days before or after lactacystin microinjection; Zhu et al. 2007; cited from earlier work
[6] = strain AB3638, read-out: MIC of compound 4
[7] = strain AB3785, read-out: MIC of compound 4
[8] = strain AB3806, read-out: MIC of compound 4
[9] = strain AB3917, read-out: MIC of compound 4
[10] = strain AB4025, read-out: MIC of compound 4
[11] = strain AB4026, read-out: MIC of compound 4
[12] = strain AB4027, read-out: MIC of compound 4
[13] = strain AB4052, read-out: MIC of compound 4
[14] = strain AB4269, read-out: MIC of compound 4
[15] = strain AB4448, read-out: MIC of compound 4
[16] = strain AB4456, read-out: MIC of compound 4
[17] = strain AB4490, read-out: MIC of compound 4
[18] = strain AB4498, read-out: MIC of compound 4
[19] = strain AB4795, read-out: MIC of compound 4
[20] = strain AB4857, read-out: MIC of compound 4
[21] = strain AB4878, read-out: MIC of compound 4
[22] = strain AB4932, read-out: MIC of compound 4
[23] = strain AB4957, read-out: MIC of compound 4
[24] = strain AB4991, read-out: MIC of compound 4
[25] = strain AB5001, read-out: MIC of compound 4
[26] = strain AB5075, read-out: MIC of compound 4
[27] = strain AB5197, read-out: MIC of compound 4
[28] = strain AB5256, read-out: MIC of compound 4
[29] = strain AB5674, read-out: MIC of compound 4
[30] = strain AB5711, read-out: MIC of compound 4
[31] = rats, Ben Shachar et al., Neuropharmacology 46 (2004) 254-263

Compound `OCCN1CCN(CCc2ccc(O)c3ncccc23)CC1` [Compound 4, 5-(2-(4-(2-hydroxyethyl)piperazin-1-yl)ethyl)-8-quinolinol] has an MIC ([1]; strain AB967, read-out: MIC of compound 4) of 500 µg/mL, an MIC ([1]; strain AB2828, read-out: MIC of compound 4) of 500 µg/mL and an MIC ([1]; strain AB3340, read-out: MIC of compound 4) of 500 µg/mL. It also gave an MIC ([1]; strain AB3560, read-out: MIC of compound 4) of 500 µg/mL, an MIC [1, 6] of 500 µg/mL and an MIC [1, 7] of 500 µg/mL. For the same compound, the MIC [1, 8] was 1000 µg/mL, the MIC [1, 9] was 500 µg/mL and the MIC ([1]; strain AB3927, read-out: MIC of compound 4) was 500 µg/mL. The MIC [1, 10] was 500 µg/mL, the MIC [1, 11] was 500 µg/mL and the MIC [1, 12] was 500 µg/mL. The MIC [1, 13] was 1000 µg/mL, the MIC [1, 14] was 500 µg/mL and the MIC [1, 15] was 500 µg/mL. The MIC [1, 16] was 500 µg/mL, the MIC [1, 17] was 500 µg/mL and the MIC [1, 18] was 500 µg/mL. It also gave an MIC [1, 19] of 500 µg/mL, an MIC [1, 20] of 500 µg/mL and an MIC [1, 21] of 500 µg/mL. It also gave an MIC [1, 22] of 500 µg/mL, an MIC [1, 23] of 500 µg/mL and an MIC [1, 24] of 500 µg/mL. For the same compound, the MIC [1, 25] was 500 µg/mL, the MIC [1, 26] was 500 µg/mL and the MIC [1, 27] was 500 µg/mL. The MIC [1, 28] was 500 µg/mL, the MIC [1, 29] was 500 µg/mL and the MIC [1, 30] was 500 µg/mL. It also gave an MIC [2, 6] of 64 µg/mL, an MIC [2, 7] of 32 µg/mL and an MIC [2, 8] of 32 µg/mL. It also gave an MIC [2, 9] of 32 µg/mL, an MIC [2, 10] of 32 µg/mL and an MIC [2, 11] of 32 µg/mL. The MIC [2, 12] was 32 µg/mL, the MIC [2, 13] was 64 µg/mL and the MIC [2, 14] was 32 µg/mL. For the same compound, the MIC [2, 15] was 64 µg/mL, the MIC [2, 16] was 32 µg/mL and the MIC [2, 17] was 32 µg/mL. For the same compound, the MIC [2, 18] was 64 µg/mL, the MIC [2, 19] was 32 µg/mL and the MIC [2, 20] was 64 µg/mL. It also gave an MIC [2, 21] of 64 µg/mL, an MIC [2, 22] of 125 µg/mL and an MIC [2, 23] of 125 µg/mL. For the same compound, the MIC [2, 24] was 8 µg/mL, the MIC [2, 25] was 32 µg/mL and the MIC [2, 26] was 64 µg/mL. It also gave an MIC [2, 27] of 32 µg/mL, an MIC [2, 28] of 125 µg/mL and an MIC [2, 29] of 32 µg/mL. The MIC [2, 30] was 64 µg/mL, the “MIC of compound 4” value ([2]; strain AB967) was “NG” and the “MIC of compound 4” value ([2]; strain AB2828) was “NG”. The “MIC of compound 4” value ([2]; strain AB3340) was “NG”, the “MIC of compound 4” value ([2]; strain AB3560) was “NG” and the “MIC of compound 4” value ([2]; strain AB3927) was “NG”. The “OD600 in growth curves (inhibition of growth)” value (A. baumannii strain 5711) was “dramatically reduced”, the “stability in aqueous solution” value [3] was “highly stable” and the antibacterial activity (bacterial infections) was “antibacterial activity”.
For `C#CCN(C)Cc1ccc(O)c2ncccc12` [M30], the “ability to cross the BBB” value [4] is listed as “able to cross the BBB” and the “activity (neuroprotection) against 6-OHDA in an animal model of Parkinson's disease” value (“activity (neuroprotection)” for short) (6-OHDA lesioned rats) is listed as “active”.
In the case of `OCCN1CCN(Cc2ccc(O)c3ncccc23)CC1` [VK28, 5-[4-(2-hydroxyethyl)piperazin-1-ylmethyl]-8-hydroxyquinoline], the antibacterial activity (bacterial infections) is listed as “antibacterial activity”, the “ability to cross the BBB” value [4] is listed as “able to cross the BBB” and the “activity (neuroprotection)” value (6-OHDA lesioned rats) is listed as “active”. For the same compound, the “activity (neuroprotection)” value (6-OHDA lesioned rats; listed as Vk-28) was “neuroprotection”, the “basal striatal tissue monoamine concentrations” value (6-OHDA lesioned rats; [31]) was “no effect” and the “striatal 5-HT, 5-HIAA and NE concentrations” value (6-OHDA lesioned rats; [31]) was “not be affected”. For the same compound, the behavioral performances [5] was “significantly improved”, the “lactacystin-induced DA neuron loss in SN” value [5] was “attenuated” and the “lactacystin-induced iron accumulation in SN” value [5] was “attenuated”. The “lactacystin-induced microglial activation in SN” value [5] was “attenuated” and the “lactacystin-induced proteasomal inhibition in SN” value [5] was “attenuated”.
